According to patent US20230173018A1, “CASPOFUNGIN DERIVATIVES AND ASSAYS FOR EVALUATING ANTIFUNGAL TREATMENT EFFICACY” (priority 2020, published 2023):

Legend:
Assay type in all cases: cell-based
[1] = test system: C. albicans SC5314 and C. albicans SN152; experiment: Effect of endocytosis inhibitors on growth of Candida cells; conditions: 8 μg/mL, FIGS. 6C-6F
[2] = test system: C. albicans SC5314 and SN152 cells; experiment: Effect of endocytosis inhibitors on probe 1 uptake, flow cytometry; conditions: 8 μg/mL inhibitor, 1 μM probe 1, after 30 min, both SC5314 and SN152
Procedure: Assuming that echinocandin probe uptake occurs via endocytosis, then inhibitors of endocytosis should inhibit probe uptake as well. The accumulation of probe 1 in C. albicans SC5314 and SN152 cells was measured by flow cytometry in the absence and presence of endocytosis inhibitors trifluoperazine (TFP) or pyrroloquinoxaline derivative CGS 12066B (FIG. 6A).
For example, after 30 min, TFP inhibited the uptake of probe 1 by approximately 30% and CGS 12066B inhibited its uptake by approximately 60% in both C. albicans SC5314 and SN152.

[3] = test system: C. albicans SC5314 and SN152; experiment: Competition for cellular uptake with probe 1, flow cytometry; conditions: added simultaneously with probe 1; caspofungin 1 μM, 10 μM; fluconazole 10 μM
Procedure: To determine if caspofungin competes for cellular uptake with fluorescent probe 1, both the drug and the probe were added simultaneously to cultures of strains SC5314 and SN152. The uptake of probe 1 was measured by flow cytometry every 15 minutes for 1 hour (FIG. 6B). […] No effect on the uptake of probe 1 was detected in cells co-treated with the antifungal azole drug fluconazole, which inhibits the biosynthesis of fungal membrane sterol, ergosterol.

Compound | effect on growth [1] | inhibition at 8 µg/mL ([2]; Candida albicans, 0.5 h) | inhibition of the uptake of probe 1 [2] | effect on the uptake of probe 1 [3]
CN1CCN(CCCN2c3ccccc3Sc3ccc(C(F)(F)F)cc32)CC1 [TFP, trifluoperazine] | modestly reduce growth | ~30% | – | –
CN1CCN(c2nc3cc(C(F)(F)F)ccc3n3cccc23)CC1.O=C(O)/C=C\C(=O)O.O=C(O)/C=C\C(=O)O [CGS 12066B] | modestly reduce growth | – | approximately 60% | –
OC(Cn1cncn1)(Cn1cncn1)c1ccc(F)cc1F [fluconazole] | – | – | – | No effect
